Series [1] has as its target Alpha-1 receptor (rat brain cortical membrane preparation). In words: Alpha-1 receptor binding ([3H]-prasosin). The note with it: rat brain cortical membranes, [3H]-prasosin 0.5 nM; read-out: Alfa-1 IC-50.
Method: The non-specific binding was determined in the presence of 10 μM phentolamine.
Series [2] deals with T1, rat recombinant D3 receptors (expressed in Sf9 cells) (Rattus norvegicus, UniProt P19020).
T1 construct: purchased Packard BioScience, BioSignal Packard Inc. 6110139; host or cells: Sf9 cells
The series can be described thus: D3 receptor binding ([3H]-spiperone). The note with it: [3H]-spiperone 0.85 nM, read-out: D3 IC-50.

The target in series [3] is T2, D2 receptor (rat brain striatal membrane preparation) (Rattus norvegicus, UniProt P61169).
T2 construct: on rat brain striatal membrane preparation; from tissue; host or cells: rat brain striatum membranes
In words: D2 receptor binding ([3H]-spiperone). The note with it: rat brain striatal membranes, [3H]-spiperone 0.6 nM; read-out: D2 IC-50.
Method: The non-specific binding was determined in the presence of 1 μM (+)-butaclamol.

T1 sequence (P19020 whole entry): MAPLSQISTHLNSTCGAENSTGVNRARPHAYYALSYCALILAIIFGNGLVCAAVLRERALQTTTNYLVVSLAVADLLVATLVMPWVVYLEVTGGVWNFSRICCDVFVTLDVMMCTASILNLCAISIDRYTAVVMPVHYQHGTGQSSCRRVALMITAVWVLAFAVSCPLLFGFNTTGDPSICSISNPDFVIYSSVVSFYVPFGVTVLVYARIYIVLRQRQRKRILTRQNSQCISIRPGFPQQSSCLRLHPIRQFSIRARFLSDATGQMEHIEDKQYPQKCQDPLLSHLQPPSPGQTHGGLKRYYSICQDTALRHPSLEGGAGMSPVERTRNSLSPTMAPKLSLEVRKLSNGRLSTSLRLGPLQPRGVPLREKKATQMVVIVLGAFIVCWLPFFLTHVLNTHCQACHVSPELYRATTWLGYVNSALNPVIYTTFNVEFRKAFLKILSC
T2 sequence (P61169 whole entry): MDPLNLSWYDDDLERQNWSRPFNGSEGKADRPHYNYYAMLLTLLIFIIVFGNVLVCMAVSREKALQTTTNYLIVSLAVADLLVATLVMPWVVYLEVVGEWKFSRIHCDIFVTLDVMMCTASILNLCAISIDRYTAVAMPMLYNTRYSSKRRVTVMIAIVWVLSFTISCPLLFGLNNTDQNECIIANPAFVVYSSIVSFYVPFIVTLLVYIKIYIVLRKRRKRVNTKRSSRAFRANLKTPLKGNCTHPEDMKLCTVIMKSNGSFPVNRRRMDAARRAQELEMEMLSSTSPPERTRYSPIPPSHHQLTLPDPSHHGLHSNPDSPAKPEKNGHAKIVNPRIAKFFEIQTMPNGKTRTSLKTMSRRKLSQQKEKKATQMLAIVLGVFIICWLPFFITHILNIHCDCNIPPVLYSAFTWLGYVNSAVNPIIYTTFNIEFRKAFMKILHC

For `CCOC(=O)CNC(=O)N[C@H]1CC[C@H](CCN2CCN(c3cccc(Cl)c3Cl)CC2)CC1` [Compound 51, trans-[3-(4-{2-[4-(2,3-Dichloro-phenyl)-piperazin-1-yl]-ethyl}-cyclohexyl)-ureido]-acetic acid ethyl ester], the IC50 in series [1] is greater than 200 nM; in series [2], less than 1 nM; in series [3], 10 to 50 nM.
`COC(=O)C(NC(=O)N[C@H]1CC[C@H](CCN2CCN(c3cccc(Cl)c3Cl)CC2)CC1)C(C)C` (relative stereo) [Compound 29, trans-2-[3-(4-{2-[4-(2,3-Dichloro-phenyl)-piperazin-1-yl]-ethyl}-cyclohexyl)-ureido]-3-methyl-butyric acid methyl ester]: the IC50 in series [1] was greater than 200 nM; in series [2], 1 to 10 nM.
Consider `O=C(N[C@H]1CC[C@H](CCN2CCN(c3cccc(Cl)c3Cl)CC2)CC1)N1CCOCC1` [Compound 16, trans-N-{4-[2-[4-(2,3-dichlorophenyl)-piperazin-1-yl]-ethyl]-cyclohexyl}-morpholine-4-carboxamide], for which the melting point fell in the range of 201 to 203 °C. The IC50 in series [1] is greater than 200 nM. Also, in series [2], the IC50 is less than 1 nM.
On to `O=C(N[C@H]1CC[C@H](CCN2CCCN(c3cccc(Cl)c3Cl)CC2)CC1)N1CCCC1` [Compound 9, trans-N-{4-[2-[4-(2,3-dichlorophenyl)-hexahydro[1,4]diazepin-1-yl]-ethyl]-cyclohexyl}-pyrrolidine-1-carboxamide], for which the IC50 in series [1] was greater than 200 nM; in series [2] it was less than 1 nM; in series [3], 1 to 10 nM.
`CC(C)NC(=O)N[C@H]1CC[C@H](CCN2CCN(c3cccc(Cl)c3Cl)CC2)CC1` [Compound 5, trans-1-{4-[2-[4-(2,3-dichlorophenyl)-piperazin-1-yl]-ethyl]-cyclohexyl}-3-isopropyl-urea] returned a melting point of 227 to 230 °C. The IC50 in series [1] is greater than 200 nM. For the same compound, the IC50 in series [2] is less than 1 nM. Also, the IC50 in series [3] lay in the range of 10 to 50 nM.
For `CCCNC(=S)N[C@H]1CC[C@H](CCN2CCN(c3cccc(Cl)c3Cl)CC2)CC1` [Compound 42, trans-1-(4-{2-[4-(2,3-Dichloro-phenyl)-piperazin-1-yl]-ethyl}-cyclohexyl)-3-propyl-thiourea], the results for the IC50 in series [1], in series [2] and in series [3] were greater than 200 nM, less than 1 nM and 10 to 50 nM, respectively.
The like results for `CC(C)(C)NC(=S)N[C@H]1CC[C@H](CCN2CCN(c3cccc(Cl)c3Cl)CC2)CC1` [Compound 38, trans-1-tert-Butyl-3-(4-{2-[4-(2,3-dichloro-phenyl)-piperazin-1-yl]-ethyl}-cyclohexyl)-thiourea] were, in that order, greater than 200 nM, 1 to 10 nM and 10 to 50 nM.
`O=C(N[C@H]1CC[C@H](CCN2CCN(c3cccc(Cl)c3Cl)CC2)CC1)N1CCNCC1` [Compound 14, trans-N-{4-[2-[4-(2,3-dichlorophenyl)-piperazin-1-yl]-ethyl]-cyclohexyl}-piperazine-1-carboxamide] yielded a melting point of 293 to 296 °C.
Same read-out and setting: the value for `O=C(N[C@H]1CC[C@H](CCN2CCN(c3cccc(Cl)c3Cl)CC2)CC1)N1CCCCC1` [Compound 17, trans-N-{4-[2-[4-(2,3-dichlorophenyl)-piperazin-1-yl]-ethyl]-cyclohexyl}-piperidine-1-carboxamide] was 188 to 190 °C.
With `CCNC(=S)N[C@H]1CC[C@H](CCN2CCN(c3cccc(Cl)c3Cl)CC2)CC1` [Compound 45, trans-1-(4-{2-[4-(2,3-Dichloro-phenyl)-piperazin-1-yl]-ethyl}-cyclohexyl)-3-ethyl-thiourea], the values for the IC50 in series [1], in series [2] and in series [3] were greater than 200 nM, less than 1 nM and 10 to 50 nM, respectively.
Regarding `CCCCNC(=O)N[C@H]1CC[C@H](CCN2CCN(c3cccc(Cl)c3Cl)CC2)CC1` [Compound 24, trans-1-Butyl-3-(4-{2-[4-(2,3-dichloro-phenyl)-piperazin-1-yl]-ethyl}-cyclohexyl)-urea], the IC50 in series [1] was greater than 200 nM; in series [2] it was less than 1 nM; in series [3], 10 to 50 nM.
As for `O=C(N[C@H]1CC[C@H](CCN2CCN(c3cccc(Cl)c3Cl)CC2)CC1)N1CCC(O)CC1` [Compound 18, trans-N-{4-[2-[4-(2,3-dichlorophenyl)-piperazin-1-yl]-ethyl]-cyclohexyl}-4-hydroxy-piperidine-1-carboxamide], the melting point lay in the range of 178 to 180 °C.
In the case of `CCNC(=O)N[C@H]1CC[C@H](CCN2CCN(c3cccc(Cl)c3Cl)CC2)CC1` [Compound 2, Trans-1-{4-[2-[4-(2,3-dichlorophenyl)-piperazin-1-yl]-ethyl]-cyclohexyl}-3-ethyl-urea], the melting point is 235 to 238 °C. Also, in series [1], the IC50 is greater than 200 nM. Besides, in series [2], the IC50 is less than 1 nM.
Consider `CCNC(=O)N[C@H]1CC[C@H](CCN2CCCN(c3cccc(Cl)c3Cl)CC2)CC1` [Compound 6, trans-1-{4-[2-[4-(2,3-dichlorophenyl)-hexahydro[1,4]diazepin-1-yl]-ethyl]-cyclohexyl}-3-ethyl-urea], for which the melting point fell in the range of 115 to 118 °C. The IC50 in series [1] is greater than 200 nM. Besides, in series [2], the IC50 is less than 1 nM. Further, the IC50 in series [3] lay in the range of 10 to 50 nM.
Consider `N#Cc1cccc(NC(=O)N[C@H]2CC[C@H](CCN3CCN(c4cccc(Cl)c4Cl)CC3)CC2)c1` [Compound 31, trans-1-(3-Cyano-phenyl)-3-(4-{2-[4-(2,3-dichloro-phenyl)-piperazin-1-yl]-ethyl}-cyclohexyl)-urea], for which the figures for the IC50 in series [1] and in series [2] were greater than 200 nM and less than 1 nM, respectively.
Turning to `COc1cc(NC(=O)N[C@H]2CC[C@H](CCN3CCN(c4cccc(Cl)c4Cl)CC3)CC2)cc(OC)c1OC` [Compound 32, trans-1-(4-{2-[4-(2,3-Dichloro-phenyl)-piperazin-1-yl]-ethyl}cyclohexyl)-3-(3,4,5-trimethoxy-phenyl)-urea], the results for the IC50 in series [1], in series [2] and in series [3] were greater than 200 nM, less than 1 nM and 10 to 50 nM, respectively.
Consider `CCN(C)C(=O)N[C@H]1CC[C@H](CCN2CCN(c3cccc(Cl)c3Cl)CC2)CC1` [Compound 11, trans-1-{4-[2-[4-(2,3-dichlorophenyl)-piperazin-1-yl]-ethyl]-cyclohexyl}-3-ethyl-3-methyl-urea], for which the melting point was 195 to 198 °C.
Still for that read-out and setting: the value for `CCN(CC)C(=O)N[C@H]1CC[C@H](CCN2CCN(c3cccc(Cl)c3Cl)CC2)CC1` [Compound 10, trans-1-{4-[2-[4-(2,3-dichlorophenyl)-piperazin-1-yl]-ethyl]-cyclohexyl}-3,3-diethyl-urea] was 171 to 173 °C.
For `O=C(NCc1ccccc1)N[C@H]1CC[C@H](CCN2CCN(c3cccc(Cl)c3Cl)CC2)CC1` [Compound 49, trans-1-Benzyl-3-(4-{2-[4-(2,3-dichloro-phenyl)-piperazin-1-yl]-ethyl}-cyclohexyl)-urea], the values for the IC50 in series [1], in series [2] and in series [3] were greater than 200 nM, less than 1 nM and 50 to 200 nM, respectively.
Compound `CN1CCN(C(=O)N[C@H]2CC[C@H](CCN3CCN(c4cccc(Cl)c4Cl)CC3)CC2)CC1` [Compound 15, trans-N-{4-[2-[4-(2,3-dichlorophenyl)-piperazin-1-yl]-ethyl]-cyclohexyl}-4-methyl-piperazine-1-carboxamide] came in with a melting point of 166 to 168 °C.
As for `CCCNC(=O)N[C@H]1CC[C@H](CCN2CCN(c3cccc(Cl)c3Cl)CC2)CC1` [Compound 4, trans-1-{4-[2-[4-(2,3-dichlorophenyl)-piperazin-1-yl]-ethyl]-cyclohexyl}-3-propyl-urea], the melting point lay in the range of 218 to 220 °C. Moreover, the IC50 in series [1] was greater than 200 nM. In addition, in series [2], the IC50 is less than 1 nM. For the same compound, the IC50 in series [3] is 10 to 50 nM.
As for `O=C(NC1CCCCC1)N[C@H]1CC[C@H](CCN2CCN(c3cccc(Cl)c3Cl)CC2)CC1` [Compound 33, trans-1-Cyclohexyl-3-(4-{2-[4-(2,3-dichloro-phenyl)-piperazin-1-yl]-ethyl}-cyclohexyl)-urea], the IC50 was greater than 200 nM in series [1] and less than 1 nM in series [2].
The like results for `CC(C)(C)NC(=O)N[C@H]1CC[C@H](CCN2CCN(c3cccc(Cl)c3Cl)CC2)CC1` [Compound 47, trans-1-tert-Butyl-3-(4-{2-[4-(2,3-dichloro-phenyl)-piperazin-1-yl]-ethyl}-cyclohexyl)-urea] were, in that order, greater than 200 nM and less than 1 nM.
Take `O=C(Nc1ccccc1)N[C@H]1CC[C@H](CCN2CCN(c3cccc(Cl)c3Cl)CC2)CC1` [Compound 48, trans-1-(4-{2-[4-(2,3-Dichloro-phenyl)-piperazin-1-yl]-ethyl}-cyclohexyl)-3-phenyl-urea]: the IC50 is greater than 200 nM in series [1], less than 1 nM in series [2] and 10 to 50 nM in series [3].
Taken in the same sequence, the figures for `COc1ccc(NC(=O)N[C@H]2CC[C@H](CCN3CCN(c4cccc(Cl)c4Cl)CC3)CC2)cc1` [Compound 50, trans-1-(4-{2-[4-(2,3-Dichloro-phenyl)-piperazin-1-yl]-ethyl}-cyclohexyl)-3-(4-methoxy-phenyl)-urea] were greater than 200 nM, less than 1 nM and 50 to 200 nM.
As for `C=CCNC(=O)N[C@H]1CC[C@H](CCN2CCN(c3cccc(Cl)c3Cl)CC2)CC1` [Compound 21, trans-1-Allyl-3-(4-{2-[4-(2,3-dichloro-phenyl)-piperazin-1-yl]-ethyl}-cyclohexyl)-urea], the IC50 in series [1] was greater than 200 nM; in series [2], less than 1 nM; in series [3], 10 to 50 nM.
The like results for `CCOC(=O)CNC(=S)N[C@H]1CC[C@H](CCN2CCN(c3cccc(Cl)c3Cl)CC2)CC1` [Compound 44, trans-[3-(4-{2-[4-(2,3-Dichloro-phenyl)-piperazin-1-yl]-ethyl}-cyclohexyl)-thioureido]-acetic acid ethyl ester] were, in that order, greater than 200 nM, less than 1 nM and 10 to 50 nM.

The melting point is the temperature, or range, at which the solid turns liquid.

The values are drawn from patent US7737142B2, “(Thio) carbamoyl-cyclohexane derivatives as D3/D2 receptor antagonists” (Richter Gedeon Vegyeszeti Gyar Rt., priority 2003, dated 2010).
